In patent US20100240760A1 (priority 2005, published 2010):

Tests used:
[1] = tested on: patients with mild-to-moderate essential hypertension; assay: Clinical trial A2201 (Example I): aliskiren vs placebo and irbesartan, 8 weeks; type: in vivo, human; conditions: for MSDBP responders / MSSBP responders: ITT population at Endpoint, aliskiren 150-600 mg groups, irbesartan 150 mg; for MSDBP responders: responder: MSDBP <90 mm Hg or ≧10 mm Hg reduction from baseline; for MSSBP responders: responder: MSSBP <140 mm Hg or ≧20 mm Hg reduction from baseline; for mean increase in active renin: ITT population
Description: The clinical trial. A multicenter, randomized, double-blind, parallel group clinical trial was designed to explore the efficacy and safety of aliskiren compared to placebo in a population of mild-to-moderate hypertensive patients. The treatment was for eight weeks, i.e., the clinical trial endpoint was at eight weeks for this particular trial. […] The majority of patients were Caucasian and younger than 65 years of age, with a mean age in the mid 50s. The overall distribution of males and females was even. The primary efficacy variable analysed was MSDBP change (reduction in MSDBP from baseline). The secondary efficacy variables analysed were MSSBP change (reduction in MSSBP from baseline), responder ratio, plasma renin activity (PRA) reduction and active plasma renin (AREN) increase from baseline.

[2] = tested on: patients with mild-to-moderate essential hypertension; assay: Pharmacogenetic analysis of A2201 (Example I): response by ACE and AGTR2 genotype; type: in vivo, human; conditions: aliskiren treated groups pooled
[3] = tested on: patients with mild-to-moderate essential hypertension; assay: Re-analysis of A2201 by genotype (Example II model, LSMEAN, race as covariate); type: in vivo, human; conditions: all aliskiren treated groups in A2201
Description: Samples. Patients participating in the clinical trial A2201 (see, EXAMPLE I) and clinical trial A2203 were asked to provide a separate consent for participation in pharmacogenetic analysis. Blood samples from all consenting patients were collected at the individual trial sites and then shipped to Covance (Indianapolis, Ind.). The genomic DNA of each patient was extracted from the blood by Covance using the […]™ DNA Isolation Kit (D-50K) (Gentra, Minneapolis, Minn.) and shipped to NIBR for genotyping. Ultimately, 511 patients from the clinical trial in EXAMPLE I (A2201) were genotyped, with roughly equal ratios of each treatment arm.
The primary efficacy variable was MSDBP change (reduction in MSDBP from baseline at end point). The secondary efficacy variables are MSSBP change (reduction in MSSBP from baseline at end point), responder ratio, plasma renin activity (PRA) reduction and active plasma renin (AREN) increase from baseline.
Genotyping. SNP assays were designed using information from the public dbSNP database and the proprietary Celera/ABI database. The resulting probe sets for the genotyping assay were generated for ABI's Assays-by-Design® platform. Livak K J et al., Nat. Genet. 9: 341-2 (1995). Genotyping was performed on 10 ng of genomic DNA according to the manufacturer's instructions.
Statistical analysis. Genotype-phenotype association studies and related analyses were performed in SAS (Cary, N.C.) using Analyst.
Association tests used categorical genotypes as the independent variable, with no assumption about dominance, and the various efficacy variables as dependent variables. Tests of continuous dependent variables used an ANCOVA analysis, and logistic regression was used for categorical dependent variables. Note that none of the results have been adjusted for multiple hypothesis testing. […] Covariates in the genotype-phenotype association analysis were: (1) dose level of treatment; (2) trial region coded as STU1A in A2201 (see EXAMPLE I) or REGION in A2203; (3) baseline measurement of MSDBP and MSSBP; and (4) race. Analysis was performed in all the samples from the three aliskiren treated arms first.

hypertensive patients = assay: Clinical trial A2203 (Example II): aliskiren, valsartan and combinations, 6 weeks; type: in vivo, human
[4] = tested on: sodium-depleted marmosets; conditions: p.o. or i.v.; cited from earlier work
[5] = humans; cited from earlier work
[6] = tested on: patients with mild-to-moderate essential hypertension; assay: Clinical trial A2201 (Example I): aliskiren vs placebo and irbesartan, 8 weeks; type: in vivo, human; conditions: 75, 150, or 300 mg once daily; mild-to-moderate hypertensive patients
[7] = SNP_4769 genotype CT (n 14), listed as Aliskiren
[8] = SNP_4769 genotype TT (n 278), listed as Aliskiren

CCCCC1=NC2(CCCC2)C(=O)N1Cc1ccc(-c2ccccc2-c2nnn[nH]2)cc1 [irbesartan]
MSDBP responders [1]: 56%
MSSBP responders [1]: 59%
mean increase in active renin ([1]; 150 mg): 11.2 mu/mL

COCCCOc1cc(C[C@@H](C[C@H](N)[C@@H](O)C[C@H](C(=O)NCC(C)(C)C(N)=O)C(C)C)C(C)C)ccc1OC [aliskiren, Aliskiren]
MSDBP responders [1]: 59-67%
MSSBP responders [1]: 57-68%
mean increase in active renin ([1]; 150 mg): 20.8 mu/mL
mean increase in active renin ([1]; 300 mg): 29.9 mu/mL
mean increase in active renin ([1]; 600 mg): 93.6 mu/mL
MSDBP reduction, comparison across treatment groups ([1]; aliskiren 300 and 600 mg): greatest reductions
MSSBP reduction, comparison across treatment groups ([1]; aliskiren 300 and 600 mg): greatest reductions
MSSBP reduction, comparison with placebo and irbesartan ([1]; aliskiren 300 and 600 mg, at Endpoint): statistically superior to placebo and irbesartan
MSDBP reduction ([2]; SNP_1445 genotype AA (n 106)): −11.2 mmHg
MSSBP reduction ([2]; SNP_1445 genotype AA (n 106)): −13.9 mm Hg
MSDBP reduction ([2]; SNP_1445 genotype AG (n 69)): −13.2 mmHg
MSSBP reduction ([2]; SNP_1445 genotype AG (n 69)): −15.7 mm Hg
MSDBP reduction ([2]; SNP_1445 genotype GG (n 118)): −9.3 mmHg
MSSBP reduction ([2]; SNP_1445 genotype GG (n 118)): −11.8 mm Hg
MSDBP reduction ([2]; SNP_4769 genotype CT (n 14)): 4.7 mmHg
MSSBP reduction ([2]; SNP_4769 genotype CT (n 14)): 6.2 mm Hg
MSDBP reduction [2, 7]: −4.7 mmHg
MSSBP reduction [2, 7]: −6.2 mm Hg
MSDBP reduction ([2]; SNP_4769 genotype TT (n 278)): 11.1 mmHg
MSSBP reduction ([2]; SNP_4769 genotype TT (n 278)): 13.7 mm Hg
MSDBP reduction [2, 8]: −11.1 mmHg
MSSBP reduction [2, 8]: −13.7 mm Hg
MSDBP reduction ([2]; SNP_4795 genotype AA (n 115)): −9.0 mmHg
MSSBP reduction ([2]; SNP_4795 genotype AA (n 115)): −11.5 mm Hg
MSDBP reduction ([2]; SNP_4795 genotype GA (n 72)): −13.3 mmHg
MSSBP reduction ([2]; SNP_4795 genotype GA (n 72)): −16.3 mm Hg
MSDBP reduction ([2]; SNP_4795 genotype GG (n 106)): −11.1 mmHg
MSSBP reduction ([2]; SNP_4795 genotype GG (n 106)): −13.6 mm Hg
LSMEAN of MSDBP reduction ([3]; SNP_1445 genotype AA (n 106)): −11.0 mmHg
LSMEAN of MSSBP reduction ([3]; SNP_1445 genotype AA (n 106)): −11.2 mmHg
Responder rate ([3]; SNP_1445 genotype AA (n 106)): 75%
LSMEAN of MSDBP reduction ([3]; SNP_1445 genotype AG (n 69)): −13.3 mmHg
LSMEAN of MSSBP reduction ([3]; SNP_1445 genotype AG (n 69)): −13.8 mmHg
Responder rate ([3]; SNP_1445 genotype AG (n 69)): 71%
LSMEAN of MSDBP reduction ([3]; SNP_1445 genotype GG (n 118)): −9.4 mmHg
LSMEAN of MSSBP reduction ([3]; SNP_1445 genotype GG (n 118)): −9.8 mmHg
Responder rate ([3]; SNP_1445 genotype GG (n 118)): 58%
Responder rate ([3]; SNP_4769 genotype CT (n 14)): 14%
LSMEAN of MSDBP reduction ([3]; SNP_4795 genotype AA (n 115)): −9.2 mmHg
LSMEAN of MSSBP reduction ([3]; SNP_4795 genotype AA (n 115)): −9.5 mmHg
Responder rate ([3]; SNP_4795 genotype AA (n 115)): 57%
LSMEAN of MSDBP reduction ([3]; SNP_4795 genotype GA (n 72)): −13.4 mmHg
LSMEAN of MSSBP reduction ([3]; SNP_4795 genotype GA (n 72)): −14.2 mmHg
Responder rate ([3]; SNP_4795 genotype GA (n 72)): 74%
LSMEAN of MSDBP reduction ([3]; SNP_4795 genotype GG (n 106)): −10.8 mmHg
LSMEAN of MSSBP reduction ([3]; SNP_4795 genotype GG (n 106)): −10.8 mmHg
Responder rate ([3]; SNP_4795 genotype GG (n 106)): 75%
change from baseline in MSDBP, aliskiren monotherapy vs. placebo (hypertensive patients; aliskiren 300 mg group, 6 weeks): statistically significant
dose-response and magnitude of placebo-subtracted effects (hypertensive patients; preliminary clinical study results summary, placebo response 8.6 mmHg): lower than expected
inhibition of plasma renin activity (PRA) [4]: complete inhibition
mean arterial pressure (MAP) [4]: sustained reductions
plasma concentrations of active and total renin [4]: significant increases
Cmax and AUC dependence on dose [5]: increase with dose, but in a non-linear fashion
bioavailability [5]: approximately 2.7%
half-life [5]: approximately 25 hours
time to peak plasma levels after administration [5]: 3 to 5 h
daytime ambulatory systolic blood pressure (DASBP) [6]: statistically significant reduction
